Laboratory results from ChEMBL document CHEMBL5370540, “Discovery of pyrimidine-5-carboxamide derivatives as novel salt-inducible kinases (SIKs) inhibitors for inflammatory bowel disease (IBD) treatment” (Eur J Med Chem, 2023).
Activity calls are given as the source filed them. The calls are words filed in the database; no cut-off is given here.

How the values were obtained:
[1] = biological target: Serine/threonine-protein kinase SIK2 (Mus musculus) (UniProt Q8CFH6); assay: Inhibition of SIK2 in C57BL/6J mouse BMDM cells assessed as increase in IL-10 mRNA level at 500 nM preincubated for 1 hr followed by LPS stimulation measured for 1 hr by qPCR analysis; format: cell-based; conditions: time 2.0 hrs
Sequence of Serine/threonine-protein kinase SIK2 (Mus musculus) (Q8CFH6 whole entry): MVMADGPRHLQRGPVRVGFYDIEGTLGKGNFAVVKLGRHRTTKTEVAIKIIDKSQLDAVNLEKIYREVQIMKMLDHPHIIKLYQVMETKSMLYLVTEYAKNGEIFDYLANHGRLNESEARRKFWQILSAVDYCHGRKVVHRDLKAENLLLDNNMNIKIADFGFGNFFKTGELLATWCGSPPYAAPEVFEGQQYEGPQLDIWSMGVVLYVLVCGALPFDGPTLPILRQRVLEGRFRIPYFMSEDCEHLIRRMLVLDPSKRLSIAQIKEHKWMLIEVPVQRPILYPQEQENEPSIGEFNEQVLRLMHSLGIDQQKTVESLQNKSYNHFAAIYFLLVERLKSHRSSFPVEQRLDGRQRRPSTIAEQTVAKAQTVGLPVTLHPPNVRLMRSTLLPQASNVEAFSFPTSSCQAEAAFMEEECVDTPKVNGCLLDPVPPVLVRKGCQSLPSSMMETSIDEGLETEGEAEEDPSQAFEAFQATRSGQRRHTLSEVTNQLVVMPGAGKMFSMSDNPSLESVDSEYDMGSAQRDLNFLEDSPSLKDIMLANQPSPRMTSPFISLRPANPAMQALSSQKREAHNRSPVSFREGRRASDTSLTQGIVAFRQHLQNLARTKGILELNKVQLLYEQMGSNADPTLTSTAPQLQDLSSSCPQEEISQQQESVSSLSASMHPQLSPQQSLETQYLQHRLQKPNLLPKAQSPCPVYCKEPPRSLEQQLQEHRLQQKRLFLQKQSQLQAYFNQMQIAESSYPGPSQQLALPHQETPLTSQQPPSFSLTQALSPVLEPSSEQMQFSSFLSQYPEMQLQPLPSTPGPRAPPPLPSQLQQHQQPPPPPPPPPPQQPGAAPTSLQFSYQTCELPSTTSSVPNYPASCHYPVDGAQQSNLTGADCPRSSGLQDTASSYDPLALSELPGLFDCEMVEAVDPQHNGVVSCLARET

[2] = biological target: Serine/threonine-protein kinase SIK2 (Mus musculus) (UniProt Q8CFH6); assay: Inhibition of SIK2 in C57BL/6J mouse BMDM cells assessed as increase in c-FOS mRNA level at 500 nM preincubated for 1 hr followed by LPS stimulation measured for 2 to 4 hrs by qPCR analysis; format: cell-based; conditions: time 3-5 hrs
[3] = biological target: Serine/threonine-protein kinase SIK2 (Mus musculus) (UniProt Q8CFH6); assay: Inhibition of SIK2 in C57BL/6J mouse BMDM cells assessed as increase in c-FOS mRNA level at 500 nM preincubated for 1 hr followed by LPS stimulation measured for 1 hr by qPCR analysis; format: cell-based; conditions: time 2.0 hrs
[4] = system: BMDM; assay: Anti-inflammatory activity against C57BL/6J mouse BMDM cells assessed as decrease in IL-12 level at 500 nM preincubated for 1 hr followed by LPS stimulation measured after 8 hrs by ELISA method; format: functional, cell-based; conditions: time 9.0 hrs
[5] = system: Mus musculus; assay: Antiinflammatory activity in DSS-induced colitis C57BL/6J mouse model assessed as increase in colon length at 7.5 to 30 mg/kg, ip measured after 12 days; format: functional, organism-based; conditions: dose 7.5-30 mg/kg, time 12.0 day
[6] = Oral bioavailability in Sprague-Dawley rat at 10 mg/kg measured upto 24 hrs by LC/MS/MS analysis; format: ADME, organism-based; conditions: in vivo
[7] = AUC (0 to t) in Sprague-Dawley rat at 10 mg/kg, po measured upto 24 hrs by LC/MS/MS analysis; format: ADME, organism-based; parameters: dose 10 mg/kg, time < 24 hrs, route po; conditions: in vivo
[8] = biological target: Protein-tyrosine kinase 6 (Homo sapiens) (UniProt Q13882); assay: Inhibition of BRK (unknown origin) at 1 uM
Sequence of Protein-tyrosine kinase 6 (Homo sapiens) (Q13882 whole entry, looked up): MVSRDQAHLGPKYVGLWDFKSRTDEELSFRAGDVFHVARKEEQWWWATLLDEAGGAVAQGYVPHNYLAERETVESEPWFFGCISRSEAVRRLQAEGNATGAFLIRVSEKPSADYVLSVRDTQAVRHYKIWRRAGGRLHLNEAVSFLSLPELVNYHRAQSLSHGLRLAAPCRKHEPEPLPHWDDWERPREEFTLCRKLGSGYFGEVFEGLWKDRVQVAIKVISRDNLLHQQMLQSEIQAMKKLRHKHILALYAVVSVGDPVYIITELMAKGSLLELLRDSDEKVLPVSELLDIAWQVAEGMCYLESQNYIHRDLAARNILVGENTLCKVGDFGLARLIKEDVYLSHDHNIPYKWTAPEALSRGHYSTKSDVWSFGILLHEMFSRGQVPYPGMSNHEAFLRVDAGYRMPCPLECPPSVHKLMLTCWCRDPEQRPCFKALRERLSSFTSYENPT

[9] = biological target: Tyrosine-protein kinase Tec (Homo sapiens) (UniProt P42680); assay: Inhibition of Tec (unknown origin) at 1 uM
Sequence of Tyrosine-protein kinase Tec (Homo sapiens) (P42680 whole entry): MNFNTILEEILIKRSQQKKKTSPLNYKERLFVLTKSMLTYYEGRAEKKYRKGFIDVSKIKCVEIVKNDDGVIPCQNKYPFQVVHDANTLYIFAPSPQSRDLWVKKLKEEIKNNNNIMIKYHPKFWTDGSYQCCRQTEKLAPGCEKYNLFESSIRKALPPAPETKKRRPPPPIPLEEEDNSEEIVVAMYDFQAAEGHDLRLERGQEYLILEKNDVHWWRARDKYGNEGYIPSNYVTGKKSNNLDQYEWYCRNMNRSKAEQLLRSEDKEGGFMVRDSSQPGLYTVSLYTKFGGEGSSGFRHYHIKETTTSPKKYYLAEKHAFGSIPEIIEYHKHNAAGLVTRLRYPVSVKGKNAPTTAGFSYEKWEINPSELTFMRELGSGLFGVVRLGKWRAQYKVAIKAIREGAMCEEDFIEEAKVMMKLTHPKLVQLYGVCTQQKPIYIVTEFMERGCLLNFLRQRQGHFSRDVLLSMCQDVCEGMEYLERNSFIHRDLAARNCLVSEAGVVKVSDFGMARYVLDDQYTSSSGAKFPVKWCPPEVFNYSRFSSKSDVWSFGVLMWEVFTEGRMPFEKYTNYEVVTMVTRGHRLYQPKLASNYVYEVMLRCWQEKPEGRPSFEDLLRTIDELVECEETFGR

[10] = biological target: Tyrosine-protein kinase ABL2 (Homo sapiens) (UniProt P42684); assay: Inhibition of ARG (unknown origin) at 1 uM
[11] = biological target: Tyrosine-protein kinase BTK (Homo sapiens) (UniProt Q06187); assay: Inhibition of BTK (unknown origin) at 1 uM
Sequence of Tyrosine-protein kinase BTK (Homo sapiens) (Q06187 whole entry): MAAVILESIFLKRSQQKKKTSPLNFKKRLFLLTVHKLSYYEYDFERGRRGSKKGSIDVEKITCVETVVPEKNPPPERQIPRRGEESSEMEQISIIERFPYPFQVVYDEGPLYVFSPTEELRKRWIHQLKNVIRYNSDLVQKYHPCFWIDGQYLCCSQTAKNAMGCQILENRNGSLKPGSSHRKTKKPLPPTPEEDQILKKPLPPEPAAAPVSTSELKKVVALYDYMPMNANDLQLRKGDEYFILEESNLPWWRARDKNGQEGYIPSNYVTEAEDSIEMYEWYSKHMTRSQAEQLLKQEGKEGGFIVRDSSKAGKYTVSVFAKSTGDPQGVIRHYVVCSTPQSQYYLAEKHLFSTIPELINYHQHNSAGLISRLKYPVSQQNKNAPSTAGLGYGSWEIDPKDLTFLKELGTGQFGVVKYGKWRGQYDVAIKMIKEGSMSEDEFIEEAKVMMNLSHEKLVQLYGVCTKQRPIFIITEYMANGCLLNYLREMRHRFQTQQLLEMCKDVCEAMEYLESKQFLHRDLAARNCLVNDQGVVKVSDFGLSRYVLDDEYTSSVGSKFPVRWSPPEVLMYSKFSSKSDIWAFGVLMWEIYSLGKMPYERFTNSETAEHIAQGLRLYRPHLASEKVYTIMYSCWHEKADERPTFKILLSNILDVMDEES

[12] = biological target: Tyrosine-protein kinase Lck (Homo sapiens) (UniProt P06239); assay: Inhibition of LcK (unknown origin) at 1 uM
[13] = system: Mus musculus; assay: Antiinflammatory activity in DSS-induced colitis C57BL/6J mouse model assessed as decrease in thickening of inherent base layer at 50 to 100 mg/kg, po measured after 12 days by H&E staining based analysis; format: functional, organism-based; conditions: dose 50-100 mg/kg, time 12.0 day
[14] = biological target: Activated CDC42 kinase 1 (Homo sapiens) (UniProt Q07912); assay: Inhibition of ACK1 (unknown origin) at 1 uM
[15] = biological target: Serine/threonine-protein kinase SIK3 (Homo sapiens, UniProt Q9Y2K2); assay: Inhibition of SIK3 (unknown origin)
[16] = system: Mus musculus; assay: Antiinflammatory activity in DSS-induced colitis C57BL/6J mouse model assessed as increase in body weight at 50 to 100 mg/kg, po; format: functional, organism-based; conditions: dose 50-100 mg/kg
[17] = biological target: Cytoplasmic tyrosine-protein kinase BMX (Homo sapiens) (UniProt P51813); assay: Inhibition of Bmx (unknown origin) at 1 uM
Sequence of Cytoplasmic tyrosine-protein kinase BMX (Homo sapiens) (P51813 whole entry): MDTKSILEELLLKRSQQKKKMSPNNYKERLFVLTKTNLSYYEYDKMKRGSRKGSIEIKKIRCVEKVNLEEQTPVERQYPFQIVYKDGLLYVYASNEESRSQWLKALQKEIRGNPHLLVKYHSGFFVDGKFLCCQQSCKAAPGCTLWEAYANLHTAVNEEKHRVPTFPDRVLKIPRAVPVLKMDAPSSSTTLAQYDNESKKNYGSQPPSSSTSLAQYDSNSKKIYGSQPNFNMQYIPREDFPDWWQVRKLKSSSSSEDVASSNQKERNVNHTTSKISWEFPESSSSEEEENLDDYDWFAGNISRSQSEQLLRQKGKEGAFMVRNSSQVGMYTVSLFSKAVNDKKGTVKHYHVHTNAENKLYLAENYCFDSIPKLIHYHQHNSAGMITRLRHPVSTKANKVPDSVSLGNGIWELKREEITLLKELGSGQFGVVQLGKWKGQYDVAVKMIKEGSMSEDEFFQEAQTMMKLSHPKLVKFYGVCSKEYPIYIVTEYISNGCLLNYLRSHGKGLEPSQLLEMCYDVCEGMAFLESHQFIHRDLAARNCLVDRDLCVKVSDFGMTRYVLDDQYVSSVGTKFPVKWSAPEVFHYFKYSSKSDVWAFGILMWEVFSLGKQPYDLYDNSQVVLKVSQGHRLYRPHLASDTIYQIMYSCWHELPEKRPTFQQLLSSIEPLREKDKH

[18] = Protein binding in human plasma at 10 uM measured for 8 hrs by dialysis method; format: ADME, cell-free; conditions: read-out: PPB (converted)
[19] = biological target: Tyrosine-protein kinase ABL1 (Homo sapiens) (UniProt P00519); assay: Inhibition of Abl (unknown origin) at 1 uM
[20] = biological target: Tyrosine-protein kinase FRK (Homo sapiens) (UniProt P42685); assay: Inhibition of PTK5 (unknown origin) at 1 uM
Sequence of Tyrosine-protein kinase FRK (Homo sapiens) (P42685 whole entry): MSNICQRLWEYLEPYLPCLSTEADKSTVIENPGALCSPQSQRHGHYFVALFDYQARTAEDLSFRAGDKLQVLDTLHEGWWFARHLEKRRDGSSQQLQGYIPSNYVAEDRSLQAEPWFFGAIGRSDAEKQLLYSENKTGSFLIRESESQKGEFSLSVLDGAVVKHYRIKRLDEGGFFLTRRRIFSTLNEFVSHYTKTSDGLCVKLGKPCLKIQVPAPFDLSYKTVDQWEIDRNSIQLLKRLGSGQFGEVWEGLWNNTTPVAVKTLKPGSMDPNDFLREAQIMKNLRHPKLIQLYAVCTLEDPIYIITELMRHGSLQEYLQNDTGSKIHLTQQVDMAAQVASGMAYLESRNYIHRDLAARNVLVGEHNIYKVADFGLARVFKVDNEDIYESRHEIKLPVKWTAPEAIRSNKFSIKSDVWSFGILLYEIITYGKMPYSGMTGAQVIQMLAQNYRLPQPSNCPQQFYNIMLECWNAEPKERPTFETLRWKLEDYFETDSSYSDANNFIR

[21] = biological target: Tyrosine-protein kinase Fgr (Homo sapiens) (UniProt P09769); assay: Inhibition of Fgr (unknown origin) at 1 uM
[22] = Cmax in Sprague-Dawley rat at 10 mg/kg, po measured upto 24 hrs by LC/MS/MS analysis; format: ADME, organism-based; parameters: dose 10 mg/kg, time < 24 hrs, route po; conditions: in vivo
[23] = biological target: Serine/threonine-protein kinase SIK2 (Mus musculus) (UniProt Q8CFH6); assay: Inhibition of SIK2 in C57BL/6J mouse BMDM cells assessed as increase in IL-10 mRNA level at 500 nM preincubated for 1 hr followed by LPS stimulation measured for 2 to 4 hrs by qPCR analysis; format: cell-based; conditions: time 3-5 hrs
[24] = Tmax in Sprague-Dawley rat at 5 mg/kg, iv measured upto 24 hrs by LC/MS/MS analysis; format: ADME, organism-based; conditions: in vivo
[25] = biological target: Serine/threonine-protein kinase SIK2 (Mus musculus) (UniProt Q8CFH6); assay: Inhibition of SIK2 in C57BL/6J mouse BMDM cells assessed as increase in arginase 1 mRNA level at 500 nM preincubated for 1 hr followed by LPS stimulation measured upto 8 hrs by qPCR analysis; format: cell-based; conditions: time <= 9.0 hrs
[26] = biological target: Serine/threonine-protein kinase SIK2 (Mus musculus) (UniProt Q8CFH6); assay: Inhibition of SIK2 in C57BL/6J mouse BMDM cells assessed as increase in IL-12 mRNA level at 500 nM preincubated for 1 hr followed by LPS stimulation measured for 1 hr by qPCR analysis; format: cell-based; conditions: time 2.0 hrs
[27] = biological target: Serine/threonine-protein kinase SIK2 (Mus musculus) (UniProt Q8CFH6); assay: Inhibition of SIK2 in C57BL/6J mouse BMDM cells assessed as increase in Nurr77 mRNA level at 500 nM preincubated for 1 hr followed by LPS stimulation measured for 1 hr by qPCR analysis; format: cell-based; conditions: time 2.0 hrs
[28] = system: BMDM; assay: Effect on TLR-stimulated CREB phosphorylation at Ser133 residue in C57BL/6J mouse BMDM cells at 500 nM preincubated for 1 hr followed by LPS stimulation measured upto 60 mins by Western blot analysis; format: functional, cell-based; conditions: time 2.0 hrs
[29] = biological target: Serine/threonine-protein kinase SIK2 (Mus musculus) (UniProt Q8CFH6); assay: Inhibition of SIK2 in C57BL/6J mouse BMDM cells assessed as increase in SPHK1 mRNA level at 500 nM preincubated for 1 hr followed by LPS stimulation measured upto 8 hrs by qPCR analysis; format: cell-based; conditions: time <= 9.0 hrs
[30] = biological target: Serine/threonine-protein kinase SIK2 (Homo sapiens, UniProt Q9H0K1); assay: Inhibition of SIK2 (unknown origin)
[31] = system: Mus musculus; assay: Antiinflammatory activity in DSS-induced colitis C57BL/6J mouse model assessed as decrease in disease activity index at 50 to 100 mg/kg, po; format: functional, organism-based; conditions: dose 50-100 mg/kg
[32] = biological target: Tyrosine-protein kinase Lyn (Homo sapiens) (UniProt P07948); assay: Inhibition of Lyn (unknown origin) at 1 uM
Sequence of Tyrosine-protein kinase Lyn (Homo sapiens) (P07948 2-512 limits assumed): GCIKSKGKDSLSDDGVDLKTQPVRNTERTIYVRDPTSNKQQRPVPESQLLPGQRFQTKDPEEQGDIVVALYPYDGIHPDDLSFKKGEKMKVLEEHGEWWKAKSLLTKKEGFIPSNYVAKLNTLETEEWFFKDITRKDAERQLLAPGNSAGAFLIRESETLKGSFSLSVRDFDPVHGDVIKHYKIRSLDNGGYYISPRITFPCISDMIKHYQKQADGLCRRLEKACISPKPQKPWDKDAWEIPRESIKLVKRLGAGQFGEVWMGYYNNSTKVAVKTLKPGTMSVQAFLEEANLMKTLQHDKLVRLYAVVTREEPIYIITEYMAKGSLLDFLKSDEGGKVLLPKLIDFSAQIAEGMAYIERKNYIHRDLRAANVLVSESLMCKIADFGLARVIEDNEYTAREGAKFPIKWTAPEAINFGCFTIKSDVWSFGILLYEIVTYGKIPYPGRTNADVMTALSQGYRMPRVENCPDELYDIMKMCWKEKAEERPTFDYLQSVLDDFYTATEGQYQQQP

[33] = Cmax in Sprague-Dawley rat at 5 mg/kg, iv measured upto 24 hrs by LC/MS/MS analysis; format: ADME, organism-based; parameters: dose 5 mg/kg, time < 24 hrs, route iv; conditions: in vivo
[34] = system: Mus musculus; assay: Antiinflammatory activity in DSS-induced colitis C57BL/6J mouse model assessed as decrease in thickening of inherent base layer at 7.5 to 15 mg/kg, ip measured after 12 days by H&E staining based analysis; format: functional, organism-based; conditions: dose 7.5-15 mg/kg, time 12.0 day
[35] = Clearance in Sprague-Dawley rat at 10 mg/kg, po measured upto 24 hrs by LC/MS/MS analysis; format: ADME, organism-based; conditions: in vivo
[36] = biological target: Tyrosine-protein kinase Blk (Homo sapiens) (UniProt P51451); assay: Inhibition of BlK (unknown origin) at 1 uM
Sequence of Tyrosine-protein kinase Blk (Homo sapiens) (P51451 2-505 limits assumed): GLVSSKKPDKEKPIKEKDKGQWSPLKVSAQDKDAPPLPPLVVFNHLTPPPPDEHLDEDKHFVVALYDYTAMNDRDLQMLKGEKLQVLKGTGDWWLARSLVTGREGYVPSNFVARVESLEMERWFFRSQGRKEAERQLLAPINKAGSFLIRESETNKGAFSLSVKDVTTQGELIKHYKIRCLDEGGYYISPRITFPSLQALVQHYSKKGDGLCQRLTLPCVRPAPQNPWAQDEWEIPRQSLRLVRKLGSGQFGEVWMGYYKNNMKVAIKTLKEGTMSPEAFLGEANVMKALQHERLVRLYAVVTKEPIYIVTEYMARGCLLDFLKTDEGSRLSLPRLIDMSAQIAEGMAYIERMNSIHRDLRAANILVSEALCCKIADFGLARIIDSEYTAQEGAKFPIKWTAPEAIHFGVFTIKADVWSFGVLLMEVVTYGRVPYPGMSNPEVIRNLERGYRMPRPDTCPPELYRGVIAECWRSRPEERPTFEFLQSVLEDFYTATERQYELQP

**Q.** With `Cc1cccc(F)c1NC(=O)c1cnc(Nc2ccc(N3CCN(C)CC3)c(F)c2)nc1NC1CCC1` as the compound, how does the inhibition [1] read?
**A.** Active

**Q.** And the inhibition [2]?
**A.** inactive

**Q.** And the inhibition [3]?
**A.** Active

**Q.** And the Activity [4]?
**A.** Active

**Q.** And the Activity [5]?
**A.** Active

**Q.** What about the bioavailability [6] of the same compound?
**A.** 23%

**Q.** What about the AUC(0-t) at 24 h [7] of the same compound?
**A.** 9340 ng·h/mL

**Q.** What about the inhibition [8] of the same compound?
**A.** Active

**Q.** What about the inhibition [9] of the same compound?
**A.** Active

**Q.** And the inhibition [10]?
**A.** Active

**Q.** What about the inhibition [11] of the same compound?
**A.** Active

**Q.** What about the inhibition [12] of the same compound?
**A.** Active

**Q.** And the Activity [13]?
**A.** Active

**Q.** What about the inhibition [14] of the same compound?
**A.** Active

**Q.** And the IC50 [15]?
**A.** 146 nM

**Q.** What about the Activity [16] of the same compound?
**A.** Active

**Q.** And the inhibition [17]?
**A.** Active

**Q.** And the fraction unbound at 8 h, 10 µM [18]?
**A.** 0.206

**Q.** And the inhibition [19]?
**A.** Active

**Q.** What about the inhibition [20] of the same compound?
**A.** Active

**Q.** And the inhibition [21]?
**A.** Active

**Q.** And the Cmax [22]?
**A.** 572 ng/mL

**Q.** And the inhibition [23]?
**A.** inactive

**Q.** What about the Tmax [24] of the same compound?
**A.** 6 min

**Q.** And the inhibition [25]?
**A.** Active

**Q.** And the inhibition [26]?
**A.** Active

**Q.** What about the inhibition [27] of the same compound?
**A.** Active

**Q.** And the Activity [28]?
**A.** inactive

**Q.** And the inhibition [29]?
**A.** Active

**Q.** And the IC50 [30]?
**A.** 8 nM

**Q.** And the Activity [31]?
**A.** Active

**Q.** What about the inhibition [32] of the same compound?
**A.** Active

**Q.** And the Cmax [33]?
**A.** 12000 ng/mL

**Q.** And the Activity [34]?
**A.** Active

**Q.** What about the CL/F [35] of the same compound?
**A.** 11.7 mL/min/kg

**Q.** And the inhibition [36]?
**A.** Active
